Measurements published in patent publication US20150018409A1, “CHIMERIC POLYPEPTIDES AND THEIR USE” (ADRIACELL S.P.A., priority 2003, published 2015).

Legend:
U2OS cells [1] = experiment: FACS analysis of DNA content / cell cycle distribution; format: cell-based, human; details: for interaction with SCPVUTAT on the cell cycle: simultaneous incubation with SCPVUTAT
Method: The distribution of the various phases of the cell cycle of the protein transduced cells was analysed by FACS analysis. Distribution of the DNA content of the cell populations was detected. 2n represents a diploid DNA equivalent (non replicated; G1 phase), 4n represents the tetraploid DNA equivalent (replicated; G2/M phase). For the FACS analysis the cells were separated employing the DDM mode that allows to estimate DNA content of a single cell. U2OS cells were grown for 24 hours (upper row) or 48 hours (lower row) in the presence of increasing amounts of […] (10 nM, 50 nM, 100 nM) as indicated and with only one addition of proteins; non treated cells (control); cells treated with a nuclease impaired derivative of […] (SC34, 100 nM). All the histograms shown represent a measure of DNA content relative to the cell numbers as indicated only on the upper right panel.
U2OS cells were incubated with […] (10 nM, panel B), or with H2O2 (10 μM, panelC), or both ([…], 10 nM; H2O2, 10 μM; panel D), or with no agent as a control (panel A). Further treatment cells were analysed in FACS for DNA content; the percentage of the various cell cycle phases are indicated at the bottoms of the individual histograms.
Finally, to confirm that the DSB's that are produced in vivo also induce perturbations in the cell cycle, DNA content in the various phases of the cell cycle was analysed by Fluorescence Activated Cell Sorting (FACS) after transduction of the proteins of the invention. After the treatment with diverse proteins at various concentrations and during different timepoints, the cells were fixed in 70% ethanol, treated with RNAse A and stained with propidium […].
The FACS analysis was done using a FACSCalibur™ (Becton Dickinson) apparatus. The obtained data were evaluated with the CellQuest™ software program package. At least 3×10^4 single events for every sample were analysed in the DDM mode. The statistic analysis of the DNA content distribution during the cell cycle was done with the MODFIT LT™ software program package. A 2N diploid DNA content correspond to cells in the G1 phase of the cell cycle, 4N represents a relative tetraploid DNA content and corresponds to G2 and/or M phase of the cell cycle. An intermediate DNA content represents S phase corresponding to a population actively replicating DNA during the cell cycle and a content that is below diploid 2N represents cells in apoptosis.
U2OS cells were incubated with 10 nM […] and with 10 μM H2O2 alone or in combination ant the cell cycle profile was analysed by FACS.

[2] = tested on: AT-5 cells (ATM negative); details: SCPVUTAT 100 nM or HU 1 mM
Method: AT-5 cells, negative for ATM were treated with [sequence]
(§1) P53 phosphorylation on Ser15 in response to [sequence] treatment was assayed in ATM positive or negative cell lines (MRC-5 and AT-5 respectively). For comparison parallel experiments were done with hydroxyurea (HU). […] For this immunoblotting experiments were done with extracts after treatment, by using specific antibodies to a phosphorylated Ser15 in p53 for specific detection.

[3] = tested on: MRC-5 cells (ATM positive); details: SCPVUTAT 100 nM or HU 1 mM
Method: [sequence] dependent Ser^15 phosphorylation of p53. The ATM positive cell-line MRC5 was treated with [sequence] (100 nM, SC) or with hydroxyurea (1 mM, HU) for the time periods as indicated; as a control non treated cells were used (O).
as §1

HCT116 (p53(+/+)) cells = experiment: Cell cycle arrest point: nuclear morphology and immunofluorescence of cyclin B1 and Cdc25C; format: cell-based, human; details: 30 hours; SCPVUTAT 100 nM or Taxol 0.2 μg/ml
Method: Microscopic analysis of the HCT116 (p53(+/+)) cells not treated, or treated with […] (100 nM) for 30 hours, or with taxol (0.2 μg/ml). Immunofluorescence analysis was done with primary antibodies specific for cyclin B1 or specific for Cdc25C and coloured with secondary conjugates of FITC (green, cyclinB1) or TRITC (red, Cdc25C).
Moreover, the initiation of mitosis, i.e. induced with the microtuble blocking agents Nocodazol or Taxol, can be detected by the nuclear activity of the Cdc2 kinase and also by nuclear localisation of Cdc25C. These assays allow to dissect the exact point of cell cycle arrest after […] treatment and this further allows to detect disturbations in this phase of the cell cycle relative to a positive control. Similar experiments are well known in the art also for other phases of the cell cycle. The assay shown in FIG. 7A and the immunofluorescence analysis shown in FIG. 14 show examples for these types of experiments.
HCT116 (p53(+/+)) not treated, or treated for 30 hours with […] (100 nM), or with Taxol (0.2 μg/ml) were fixated with 3% PFA and treated with specific antibodies to cyclin B1 or for Cdc25C. The immunofluorescence was analysed with the microscope (see FIG. 14) with specific primary antibodies to cyclin B1 conjugated to FITC labelled secondary antibodies (green) or with specific primary antibodies to Cdc25C conjugated to TRITC labelled secondary antibodies (red).

U2OS cells [4] = experiment: Histone H2AX Ser139 phosphorylation, single cell fluorescence microscopy; format: cell-based, human; details: Wortmanin 50 μM with SCPVUTAT 100 nM, 60 minutes
Method: U2OS cells were treated with [sequence] (100 nM, central column) for 60 minutes, in addition treatment was done with Wortmanin (50 μM, WM, right column), or with no agent as a control (left column). After treatment cells were stained with specific antibodies to H2AX-Ser-139 phosphorylated (red) or for Histone 2B (served as a control, green) and analysed on a single cell level by fluorescence microscopy.
As another example for a phosphorylation of a substrate of ATM in response to the object of the invention, histone H2AX Ser^139 phosphorylation was analysed. […] U2OS cells were treated for 60 minutes with [sequence], fixed and analysed for histone H2AX Ser^139 phosphorylation. Cells were analysed with a specific antiserum to phospho-Ser 139 on histone H2AX and analysed in the microscope on a single cell basis. As a control histone 2B was analysed.

ATM, ATR and TOR = details: Sarkaria et al., 1999; target not stated with the value; cited from earlier work
[5] = tested on: U2OS osteosarcoma cells and IMR90 primary fibroblasts; experiment: Protein transduction of the chimeric proteins (immunoblot and immunofluorescence with PvuII antibody); format: cell-based, human
Method: For a comparison aliquots of the supernatants of the cell culture taken before extract preparation were included in the analysis (upper panel, SUPERNATANT).
In addition DNA costaining was obtained with propidium J after RNAse A digest (red, upper panel).
The transduction capacity of the chimeric proteins was assayed in U2OS osteosarcoma cells and in the IMR90 primary fibroblasts cells. The cells were grown in DMEM containing 10% FCS and treated with the proteins of the invention in the same medium, in general in the presence of antibiotics. After 10 minutes of incubation of the cells with increasing quantities of the fusion protein […] (1, 10, 50, 100, 200 nM) and with the protein SCPVU (single chain PvuII without TAT) and SC34 as a control (prepared as described for […] except that the enzyme PvuII contains a mutant in position 34) cell extracts were prepared, separated on SDS-PAGE and assayed by immuno-blot analysis with a monospecific antibody to PvuII. Further, uptake was assayed after 30 min of incubation by immuno-fluorescence analysis using PvuII specific antibodies and nuclear costaining with propidium iodide.

## OO [H2O2]
U2OS cells [1]; 10 μM H2O2 alone
  change of G2 phase: no increase in G2
U2OS cells [1]
  interaction with SCPVUTAT on the cell cycle: synergistic effect

## NC(=O)NO [HU, hydroxyurea, reference compound]
[2]
  p53-Ser15 phosphorylation: comparable however consistently higher
[3]
  p53-Ser15 phosphorylation: comparable however consistently higher

## CC(=O)O[C@H]1C(=O)[C@@]2(C)[C@H]([C@H](OC(=O)c3ccccc3)[C@]3(O)C[C@H](OC(=O)[C@H](O)[C@@H](NC(=O)c4ccccc4)c4ccccc4)C(C)=C1C3(C)C)[C@]1(OC(C)=O)CO[C@@H]1C[C@@H]2O [Taxol, reference compound]
HCT116 (p53(+/+)) cells
  cell cycle stop from localisation of Cdc25C and cyclin B: stop in M phase

## COC[C@H]1OC(=O)c2coc3c2[C@@]1(C)C1=C(C3=O)[C@@H]2CCC(=O)[C@@]2(C)C[C@H]1OC(C)=O [Wortmanin, reference compound]
U2OS cells [4]
  effect on SCPVUTAT induced histone H2AX Ser139 phosphorylation: antagonist for this reaction

## C[C@@]1(CO)[C@H](O)CC[C@@]2(C)[C@H]1CC[C@H]1C[C@@H]3C[C@@]12CC[C@]3(O)CO [aphidicolin]
U2OS cells [1]
  interaction with SCPVUTAT on the cell cycle: no synergistic effect was observed

## Cn1c(=O)c2c(ncn2C)n(C)c1=O [caffeine]
ATM, ATR and TOR
  IC50: < 1000 µM
[5]
  influence of caffeine on the transduction capacity of SCPVUTAT: nor does it influence the transduction capacity
U2OS cells [1]; 100 nM SCPVUTAT in combination with 2 mM caffeine, 30 hours
  effect of caffeine on the SCPVUTAT cell cycle stop: antagonist to the effect of SCPVUTAT in vivo
U2OS cells [1]; 2 mM caffeine
  cell cycle effect of caffeine alone: moderate delay in the G1 phase
